Experimental data from patent publication US9133137B2, “Derivatives of gefitinib” (Concert Pharmaceuticals, Inc., priority 2008, dated 2015).
Like-named read-outs stand apart in the source and are kept apart here.

Experiment: Metabolic stability in human liver microsomes (in vitro t1/2)
Assay type: in vitro ADME
Conditions: pooled human liver microsomes, pooled human liver microsomes 3.0 mg/mL, test compound 0.5 μM, NADPH, 37° C.
Description: Microsomal Assay: Human liver microsomes (20 mg/mL) were obtained from Xenotech, LLC (Lenexa, Kans.). βnicotinamide adenine dinucleotide phosphate, reduced form (NADPH), magnesium chloride (MgCl2), and dimethyl sulfoxide (DMSO) were purchased from SigmaAldrich. The incubation mixtures were prepared according to Table 2:
Determination of Metabolic Stability: Two aliquots of this reaction mixture were used for a compound of this invention. The aliquots were incubated in a shaking water bath at 37° C. for 3 minutes. The test compound was then added into each aliquot at a final concentration of 0.5 μM. The reaction was initiated by the addition of cofactor (NADPH) into one aliquot (the other aliquot lacking NADPH served as the negative control). Both aliquots were then incubated in a shaking water bath at 37° C. Fifty microliters (50 μL) of the incubation mixtures were withdrawn in triplicate from each aliquot at 0, 5, 10, 20, and 30 minutes and combined with 50 μL of ice-cold acetonitrile to terminate the reaction. The same procedure was followed for gefitinib and 7-ethoxycoumarin, the positive control. Testing was done in triplicate.
Data analysis: The in vitro half-lives (t1/2s) for test compounds were calculated from the slopes of the linear regression of % parent remaining (ln) vs incubation time relationship using the following formula: in vitro t1/2=0.693/k, where k=[slope of linear regression of % parent remaining(ln)vs incubation time] Data analysis was performed using Microsoft Excel Software.
The metabolic stability of compounds of Formula A or I was tested using pooled liver microsomal incubations. Full scan LCMS analysis was then performed to detect major metabolites. Samples of the test compounds, exposed to pooled human liver microsomes, were analyzed using HPLCMS (or MS/MS) detection. For determining metabolic stability, multiple reaction monitoring (MRM) was used to measure the disappearance of the test compounds. For metabolite detection, Q1 full scans were used as survey scans to detect the major metabolites.

[1] = Experiment No. 1, read-out: t½ (min), Experiment No. 1
[2] = Experiment No. 2, read-out: t½ (min), Experiment No. 2
[3] = Experiment No. 3, read-out: t½ (min), Experiment No. 3
[4] = average of experiments 1-3, read-out: t½ (min), Ave

half-life at 0.5 μM [1] [min]	half-life at 0.5 μM [2] [min]	half-life at 0.5 μM [3] [min]	half-life at 0.5 μM [4] [min]	Structure (SMILES)
22.5	20.8	21.8	21.7	[2H]C([2H])([2H])Oc1cc2ncnc(Nc3ccc(F)c(Cl)c3)c2cc1OC([2H])([2H])C([2H])([2H])C([2H])([2H])N1CCOCC1 [Compound 102, N-(3-Chloro-4-fluorophenyl)-7-(methoxy-d3)-6-(3-morpholino(propoxy-d6))quinazolin-4-amine]
22.5	20.8	21.8	21.7	[2H]C([2H])([2H])Oc1cc2ncnc(Nc3ccc(F)c(Cl)c3)c2cc1OCCCN1CCOCC1 [Compound 104, N-(3-Chloro-4-fluorophenyl)-7-(methoxy-d3)-6-(3-morpholinopropoxy)quinazolin-4-amine]
19.4	17.6	19.8	18.9	COc1cc2ncnc(Nc3ccc(F)c(Cl)c3)c2cc1OCCCN1CCOCC1 [Gefitinib, (3-chloro-4-fluoro-phenyl)-[7-methoxy-6-(3-morpholin-4-yl-propoxy)-quinazolin-4-yl]-amine]
24.3	23.8	23.1	23.7	[2H]C([2H])([2H])Oc1cc2ncnc(Nc3ccc(F)c(Cl)c3)c2cc1OC([2H])([2H])C([2H])([2H])C([2H])([2H])N1C([2H])([2H])C([2H])([2H])OC([2H])([2H])C1([2H])[2H] [Compound 101, N-(3-Chloro-4-fluorophenyl)-7-(methoxy-d3)-6-(3-(morpholino-d8)propoxy-d6)quinazolin-4-amine]
